From article PMC5654968 (NPJ Systems Biology and Applications, 2017) come the findings set out here.

The format of the assay is in vivo, rat. The procedure:
Distilled water and saline were administered as vehicle to rats in each control group. […] Plasma cytokine levels were measured by ELISA or multiplex immunoassay; common metabolites and lipid mediators were analyzed by GC-MS/MS and LC-MS/MS, respectively.
Pathway maps of lipid mediators were created by using CellDesigner 4.4 software (http://www.celldesigner.org). We evaluated the effects of the treatments on specific lipid mediators and categorized them according to COX, CYP and LOX pathways by Fisher’s exact test. The proinflammatory and anti-inflammatory indices were analyzed as described by Tam et al. with modification.[22]

Setting [1] is: first value of an incomplete line, time (2h or 4h) not assignable.
Setting [2] is: PM/P (polyI:C+maoto vs polyI:C), 2h.
[3] abbreviates: PM/P (polyI:C+maoto vs polyI:C), 4h.

Like-named read-outs stand apart in the source and are kept apart here.

Turning to `CCCCC[C@H](O)/C=C/[C@@H]1[C@@H](C/C=C\CCCCCC(=O)O)[C@@H](O)C[C@H]1O` [1a1b-dihomo-PGF2α], the “log2FC of plasma level” value stood at 1.56. Moreover, the “log2FC of plasma level” value under setting [1] is recorded as 0.80.

As for `CC/C=C\C/C=C\C/C=C\C/C=C\C/C=C\C=C\C(O)CCC(=O)O` (stereo not drawn) [4-HDoHE], the “log2FC of plasma level” value runs as follows: (M/C (maoto vs control), 2h) 0.12; (M/C (maoto vs control), 4h) -0.59; (P/C (polyI:C vs control), 2h) -0.04; (P/C (polyI:C vs control), 4h) 0.33; under setting [2], 0.03; under setting [3], -0.79.

For the molecule `CCCCC/C=C\C/C=C\C/C=C\CC(O)C1CCCC(=O)O1` (stereo not drawn) [5,6-DHET-lactone], the “log2FC of plasma level” value is given as -0.87. In addition, the “log2FC of plasma level” value under setting [1] is listed as 0.53.

For the molecule `CCCCC/C=C\C/C=C\C/C=C\CC(O)C(O)CCCC(=O)O` (stereo not drawn) [5,6-DHET], the “log2FC of plasma level” value reads like this: (M/C (maoto vs control), 2h) 0.42; (M/C (maoto vs control), 4h) -0.54; (P/C (polyI:C vs control), 2h) -0.14; (P/C (polyI:C vs control), 4h) 0.11; under setting [2], 0.23; under setting [3], -0.71.

As for `CC/C=C\C/C=C\C/C=C\C/C=C\CC(O)C(O)CCCC(=O)O` (stereo not drawn) [5,6-DiHETE], the “log2FC of plasma level” value runs as follows: (M/C (maoto vs control), 2h) -0.03; (M/C (maoto vs control), 4h) -0.23; (P/C (polyI:C vs control), 2h) -0.19; (P/C (polyI:C vs control), 4h) 0.03; under setting [2], -0.44; under setting [3], -0.44.

In the case of `CCCCC/C=C\C/C=C\C/C=C\CC1OC1CCCC(=O)O` (stereo not drawn) [5,6-EET], the “log2FC of plasma level” value reads like this: (M/C (maoto vs control), 2h) -0.22; (M/C (maoto vs control), 4h) -0.49; (P/C (polyI:C vs control), 2h) -0.26; (P/C (polyI:C vs control), 4h) 0.11; under setting [2], 0.12; under setting [3], -0.56.

For the molecule `CC/C=C\C/C=C\C/C=C\C/C=C\C=C\C(O)CCCC(=O)O` (stereo not drawn) [5-HEPE], the “log2FC of plasma level” value was 0.39 (M/C (maoto vs control), 2h); -0.35 (M/C (maoto vs control), 4h); 0.16 (P/C (polyI:C vs control), 2h); 0.04 (P/C (polyI:C vs control), 4h); 0.10 under setting [2]; -0.47 under setting [3].

In the case of `CCCCC/C=C\C/C=C\C/C=C\C=C\[C@@H](O)CCCC(=O)O` [5-HETE], the “log2FC of plasma level” value is recorded as -0.06 (M/C (maoto vs control), 2h); -0.47 (M/C (maoto vs control), 4h); -0.07 (P/C (polyI:C vs control), 2h); 0.39 (P/C (polyI:C vs control), 4h); 0.01 under setting [2]; -0.73 under setting [3].

In the case of `CCCCCC=CCC=CCC=CC=CC(=O)CCCC(=O)O` [5-KETE], the “log2FC of plasma level” value (M/C (maoto vs control), 2h) is listed as -0.29; the “log2FC of plasma level” value (M/C (maoto vs control), 4h) was -0.45; the “log2FC of plasma level” value (P/C (polyI:C vs control), 2h) is recorded as -0.18; the “log2FC of plasma level” value (P/C (polyI:C vs control), 4h) was found to be 0.36; the “log2FC of plasma level” value under setting [2] is -0.02; the “log2FC of plasma level” value under setting [3] is given as -0.67.

Take `CCCCC/C=C\C[C@@H]1[C@H](/C=C/C(O)CCCC(=O)O)[C@@H](O)C[C@H]1O` (stereo partly drawn) [5-iPF2α-VI]: the “log2FC of plasma level” value is, setting by setting: (M/C (maoto vs control), 2h) -0.16; (M/C (maoto vs control), 4h) -0.25; (P/C (polyI:C vs control), 2h) -0.73; (P/C (polyI:C vs control), 4h) 0.38; under setting [2], 0.75; under setting [3], -0.41.

On to `CCCCCC(=O)CCC1C(O)CC(O)C1CC(=O)CCCCC(=O)O` (stereo not drawn) [6,15-diketo-13,14-dihydro-PGF1α], for which the “log2FC of plasma level” value is on record as -0.52. Under setting [1], the “log2FC of plasma level” value was determined as 1.63.

`CCCCC[C@H](O)/C=C/[C@@H]1[C@@H](CC(=O)CCCCC(=O)O)[C@@H](O)C[C@H]1O` [6-keto-PGF1α]: the “log2FC of plasma level” value reads like this: (M/C (maoto vs control), 2h) 0.16; (M/C (maoto vs control), 4h) 0.08; (P/C (polyI:C vs control), 2h) 1.21; (P/C (polyI:C vs control), 4h) 0.67; under setting [2], -0.35; under setting [3], 0.01.

With `CC/C=C\C/C=C\C/C=C\C/C=C\C=C\C(O)C/C=C\CCC(=O)O` (stereo not drawn) [7-HDoHE], the “log2FC of plasma level” value is, setting by setting: (M/C (maoto vs control), 2h) 0.11; (M/C (maoto vs control), 4h) -0.26; (P/C (polyI:C vs control), 2h) 0.02; (P/C (polyI:C vs control), 4h) 0.23; under setting [2], -0.17; under setting [3], -0.39.

With `CCCCC/C=C\C/C=C\CC(O)C(O)C/C=C\CCCC(=O)O` (stereo not drawn) [8,9-DHET], the “log2FC of plasma level” value reads like this: (M/C (maoto vs control), 2h) 0.82; (M/C (maoto vs control), 4h) -0.02; (P/C (polyI:C vs control), 2h) 0.07; (P/C (polyI:C vs control), 4h) 0.42; under setting [2], 0.16; under setting [3], -0.59.

Consider `CCCCC/C=C\C/C=C\CC1OC1C/C=C\CCCC(=O)O` (stereo not drawn) [8,9-EET], for which the “log2FC of plasma level” value is, setting by setting: (M/C (maoto vs control), 2h) -0.23; (M/C (maoto vs control), 4h) -0.33; (P/C (polyI:C vs control), 2h) -0.32; (P/C (polyI:C vs control), 4h) 0.06; under setting [2], 0.27; under setting [3], -0.66.

`CC/C=C\C/C=C\C/C=C\C/C=C\CC(O)/C=C/C=C\CCC(=O)O` (stereo not drawn) [8-HDoHE]: the “log2FC of plasma level” value reads like this: (M/C (maoto vs control), 2h) 0.09; (M/C (maoto vs control), 4h) -0.20; (P/C (polyI:C vs control), 2h) -0.07; (P/C (polyI:C vs control), 4h) 0.23; under setting [2], -0.15; under setting [3], -0.44.

`CCCCC/C=C\C/C=C\C=C\C(O)C/C=C\CCCC(=O)O` (stereo not drawn) [8-HETE]: the “log2FC of plasma level” value is reported as 0.09 (M/C (maoto vs control), 2h); -0.40 (M/C (maoto vs control), 4h); -0.12 (P/C (polyI:C vs control), 2h); 0.39 (P/C (polyI:C vs control), 4h); 0.05 under setting [2]; -0.62 under setting [3].

`CCCCCC(=O)/C=C/[C@@H]1[C@H](C/C=C\CCCC(=O)O)[C@@H](O)C[C@H]1O` [8-iso-15-keto-PGF2α]: the “log2FC of plasma level” value runs as follows: (M/C (maoto vs control), 2h) -0.41; (M/C (maoto vs control), 4h) -0.68; (P/C (polyI:C vs control), 2h) -0.16; (P/C (polyI:C vs control), 4h) 1.04; under setting [2], -0.14; under setting [3], -0.99.

With `CCCCC[C@H](O)/C=C/[C@H]1[C@H](O)CC(=O)[C@H]1C/C=C\CCCC(=O)O` [8-iso-PGE2], the “log2FC of plasma level” value is given as -0.45 (M/C (maoto vs control), 2h); -0.43 (M/C (maoto vs control), 4h); -0.13 (P/C (polyI:C vs control), 2h); 0.77 (P/C (polyI:C vs control), 4h); -0.23 under setting [2]; -0.98 under setting [3].

As to `CCCCC/C=C\CC(O)C(O)CCCCCCCC(=O)O` (stereo not drawn) [9,10-DiHOME], the “log2FC of plasma level” value is, setting by setting: (M/C (maoto vs control), 2h) 0.50; (M/C (maoto vs control), 4h) -0.34; (P/C (polyI:C vs control), 2h) 0.31; (P/C (polyI:C vs control), 4h) -0.14; under setting [2], 0.19; under setting [3], -0.10.
